Species on record: Rattus norvegicus
Experiment: Open TG-GATES - Regimen: Single
Type: toxicity, organism-based, Sprague-Dawley
Design: regimen Single, gender Male, age 6 weeks
Details: in vivo, po, 0 mg/kg, route gavage, dose level Control; for APTT / Bas / Eos / Fbg / Hb / Ht / Lym / MCH / MCHC / MCV / Mono / Neu / PT / Plat / RBC / Ret / WBC: tissue Blood; for KIDNEY_L / KIDNEY_R / KIDNEY_TOTAL: tissue Kidney; for LIVER: tissue Liver; for A/G / ALP / ALT / AST / BUN / CRE / Ca / Cl / DBIL / GLC / IP / K / LDH / Na / PL / RALB / TBIL / TC / TG / TP / gamma-GTP: tissue Plasma

C=CCO [ALLYL ALCOHOL]
TERMINAL_BW (3 h): 221.5 g | APTT (3 h): 19.5 s | Bas (3 h): 0% | Eos (3 h): 1% | Fbg (3 h): 226.4 mg/dL | Hb (3 h): 13.4 g/dL | Ht (3 h): 39.2% | Lym (3 h): 73.8% | MCH (3 h): 20.8 pg | MCHC (3 h): 34.3% | MCV (3 h): 60.8 fL | Mono (3 h): 3% | Neu (3 h): 21.8% | PT (3 h): 12.2 s | Plat (3 h): 135.4 x10_4/uL | RBC (3 h): 645 x10_4/ul | Ret (3 h): 6.7% | WBC (3 h): 82.7 x10_2/uL | KIDNEY_L (3 h): 0.9 g | KIDNEY_R (3 h): 0.9 g | KIDNEY_TOTAL (3 h): 1.8 g | LIVER (3 h): 9.9 g | A/G (3 h): 1.4 | ALP (3 h): 946 IU/L | ALT (3 h): 41.2 IU/L | AST (3 h): 72.2 IU/L | BUN (3 h): 11.2 mg/dL | CRE (3 h): 0.4 mg/dL | Ca (3 h): 10.8 mg/dL | Cl (3 h): 102 meq/L | DBIL (3 h): 0.3 mg/dL | GLC (3 h): 192.4 mg/dL | IP (3 h): 9.1 mg/dL | K (3 h): 3.9 meq/L | LDH (3 h): 190.8 IU/L | Na (3 h): 140 meq/L | PL (3 h): 176.2 mg/dL | RALB (3 h): 3.2 g/dL | TBIL (3 h): 0.4 mg/dL | TC (3 h): 83.8 mg/dL | TG (3 h): 186.2 mg/dL | TP (3 h): 5.6 g/dL | gamma-GTP (3 h): 1.2 IU/L | TERMINAL_BW (6 h): 221.2 g | APTT (6 h): 19.3 s | Bas (6 h): 0% | Eos (6 h): 1% | Fbg (6 h): 235.8 mg/dL | Hb (6 h): 13.4 g/dL | Ht (6 h): 38.9% | Lym (6 h): 73.2% | MCH (6 h): 21.4 pg | MCHC (6 h): 34.5% | MCV (6 h): 62.1 fL | Mono (6 h): 4.2% | Neu (6 h): 21.6% | PT (6 h): 12.2 s | Plat (6 h): 124.2 x10_4/uL | RBC (6 h): 626.2 x10_4/ul | Ret (6 h): 7.3% | WBC (6 h): 115.2 x10_2/uL | KIDNEY_L (6 h): 0.9 g | KIDNEY_R (6 h): 1 g | KIDNEY_TOTAL (6 h): 1.9 g | LIVER (6 h): 9.6 g | A/G (6 h): 1.6 | ALP (6 h): 1049.2 IU/L | ALT (6 h): 33.2 IU/L | AST (6 h): 62.6 IU/L | BUN (6 h): 10 mg/dL | CRE (6 h): 0.4 mg/dL | Ca (6 h): 10.5 mg/dL | Cl (6 h): 102.8 meq/L | DBIL (6 h): 0.086 mg/dL | GLC (6 h): 199.6 mg/dL | IP (6 h): 8.9 mg/dL | K (6 h): 3.8 meq/L | LDH (6 h): 195.6 IU/L | Na (6 h): 140.8 meq/L | PL (6 h): 146 mg/dL | RALB (6 h): 3.4 g/dL | TBIL (6 h): 0.1 mg/dL | TC (6 h): 74.8 mg/dL | TG (6 h): 66.2 mg/dL | TP (6 h): 5.5 g/dL | gamma-GTP (6 h): 1 IU/L | TERMINAL_BW (9 h): 217.9 g | APTT (9 h): 18.7 s | Bas (9 h): 0% | Eos (9 h): 1% | Fbg (9 h): 219.6 mg/dL | Hb (9 h): 13.2 g/dL | Ht (9 h): 38.5% | Lym (9 h): 74.8% | MCH (9 h): 20.7 pg | MCHC (9 h): 34.4% | MCV (9 h): 60.2 fL | Mono (9 h): 3.2% | Neu (9 h): 20.4% | PT (9 h): 12.5 s | Plat (9 h): 132.1 x10_4/uL | RBC (9 h): 639.8 x10_4/ul | Ret (9 h): 6.9% | WBC (9 h): 99.3 x10_2/uL | KIDNEY_L (9 h): 1 g | KIDNEY_R (9 h): 0.9 g | KIDNEY_TOTAL (9 h): 1.9 g | LIVER (9 h): 9.1 g | A/G (9 h): 1.5 | ALP (9 h): 880.4 IU/L | ALT (9 h): 28.2 IU/L | AST (9 h): 62.2 IU/L | BUN (9 h): 12 mg/dL | CRE (9 h): 0.4 mg/dL | Ca (9 h): 10.4 mg/dL | Cl (9 h): 101.6 meq/L | DBIL (9 h): 0.08 mg/dL | GLC (9 h): 208.2 mg/dL | IP (9 h): 10.7 mg/dL | K (9 h): 3.6 meq/L | LDH (9 h): 158.4 IU/L | Na (9 h): 141 meq/L | PL (9 h): 148.4 mg/dL | RALB (9 h): 3.3 g/dL | TBIL (9 h): 0.1 mg/dL | TC (9 h): 72.8 mg/dL | TG (9 h): 81 mg/dL | TP (9 h): 5.6 g/dL | gamma-GTP (9 h): 1 IU/L | TERMINAL_BW (24 h): 231.2 g | APTT (24 h): 19.4 s | Bas (24 h): 0% | Eos (24 h): 1% | Fbg (24 h): 235.8 mg/dL | Hb (24 h): 13.1 g/dL | Ht (24 h): 38.5% | Lym (24 h): 78.2% | MCH (24 h): 20.5 pg | MCHC (24 h): 34.1% | MCV (24 h): 60.3 fL | Mono (24 h): 3% | Neu (24 h): 17.2% | PT (24 h): 12.2 s | Plat (24 h): 140 x10_4/uL | RBC (24 h): 640.6 x10_4/ul | Ret (24 h): 6.2% | WBC (24 h): 99.8 x10_2/uL | KIDNEY_L (24 h): 0.9 g | KIDNEY_R (24 h): 1 g | KIDNEY_TOTAL (24 h): 1.9 g | LIVER (24 h): 10.8 g | A/G (24 h): 1.5 | ALP (24 h): 963.4 IU/L | ALT (24 h): 35.8 IU/L | AST (24 h): 63.2 IU/L | BUN (24 h): 15.8 mg/dL | CRE (24 h): 0.4 mg/dL | Ca (24 h): 10.8 mg/dL | Cl (24 h): 102 meq/L | DBIL (24 h): 0.098 mg/dL | GLC (24 h): 196.4 mg/dL | IP (24 h): 7.1 mg/dL | K (24 h): 4 meq/L | LDH (24 h): 186.4 IU/L | Na (24 h): 140.8 meq/L | PL (24 h): 147.6 mg/dL | RALB (24 h): 3.3 g/dL | TBIL (24 h): 0.2 mg/dL | TC (24 h): 74.2 mg/dL | TG (24 h): 116 mg/dL | TP (24 h): 5.6 g/dL | gamma-GTP (24 h): 0.8 IU/L

Source: ChEMBL document CHEMBL3885861, “Open TG-GATES”
